Like-named read-outs stand apart in the source and are kept apart here.
Tests used:
[1] = tested on: HeLa cells; assay: Antiproliferative SRB assay (NCI protocol), 48 h; format: cell-based, human; conditions: splenocyte CC50 versus HeLa GI50
[2] = tested on: A549 cells; assay: Antiproliferative SRB assay (NCI protocol), 48 h; format: cell-based, human; conditions: splenocyte CC50 versus A549 GI50
[3] = tested on: HeLa cells; assay: Antiproliferative SRB assay (NCI protocol), 48 h; format: cell-based; conditions: Homo sapiens, read-out: 50% growth inhibition (GI50) ± SD, HeLa
Method: (§1) In vitro antiproliferative activity was evaluated using the protocol of the National Cancer Institute (NCI) after 48 h of drug exposure using the sulforhodamine B (SRB) assay. […] We cannot discard that increasing lipophilicity may well result in an increase in cytotoxicity in vitro.
(§2) The following human solid tumor cell lines were used in this study: HBL-100 (breast), HeLa (cervix), SW1573 (non-small cell lung), T-47D (breast), A549 (lung), and WiDr (colon). Cells were maintained in 25 cm^2 culture flasks in RPMI 1640 supplemented with 5% heat-inactivated fetal calf serum and 2 mM L-glutamine in a 37 °C, 5% CO2, 95% humidified air incubator. Exponentially growing cells were trypsinized and resuspended in antibiotic containing medium (100 units penicillin G and 0.1 mg of streptomycin per mL). Single-cell suspensions displaying >97% viability by trypan blue dye exclusion test were subsequently counted. After counting, dilutions were made to give the appropriate cell densities for inoculation onto 96-well microtiter plates. Cells were inoculated in a volume of 100 μL per well at densities of 20,000 (WiDr), 15,000 (T-47D and A549), and 10,000 (HeLa, SW1573, and HBL-100) cells per well, based on their doubling times.
(§3) Chemosensitivity tests were performed using the SRB assay of the NCI with slight modifications. Briefly, pure compounds were initially dissolved in DMSO at 400 times the desired final maximum test concentration. Control cells were exposed to an equivalent concentration of DMSO (0.25% v/v, negative control). Each agent was tested in triplicate at different dilutions in the range 1–100 μM. Drug treatment started on day 1 after plating. Drug incubation periods were 48 h, after which cells were precipitated with 25 μL of ice-cold 50% (w/v) trichloroacetic acid and fixed for 60 min at 4 °C. Then, the SRB assay was performed. Optical density (OD) of each well was measured at 492 nm, using BioTek’s PowerWave XS Absorbance Microplate Reader (Highland Park, Winooski, VT, USA). Values were corrected for background OD from wells containing only culture medium. The percentage growth (PG) was calculated with respect to untreated control cells (C) at each level of drug concentrations based on the difference in OD at the start time (T0) and at the end of drug exposure (T), according to NCI formulas. Therefore, if T is greater than or equal to T0, the calculation is 100 × [(T–T0)/(C–T0)]. If T is lower than T0, denoting cell death, the calculation is 100 × [(T–T0)/(T0)]. The effect is defined as the growth percentage, where 50% growth inhibition (GI50) represents the concentration at which PG is +50. Based on these calculations, a PG value of 0 corresponds to the number of cells present at the beginning of drug exposure, while negative PG values denote net cell death.

[4] = tested on: HBL100 cells; assay: Antiproliferative SRB assay (NCI protocol), 48 h; format: cell-based; conditions: Homo sapiens, read-out: 50% growth inhibition (GI50) ± SD, HBL100
Method: as §1, §2, §3

[5] = tested on: A549 cells; assay: Antiproliferative SRB assay (NCI protocol), 48 h; format: cell-based; conditions: Homo sapiens, read-out: 50% growth inhibition (GI50) ± SD, A549
Method: as §1, §2, §3

[6] = tested on: SW1573 cells; assay: Antiproliferative SRB assay (NCI protocol), 48 h; format: cell-based, human; conditions: for GI50: Homo sapiens, read-out: 50% growth inhibition (GI50) ± SD, SW1573; for Selectivity Index, SW1573: splenocyte CC50 versus SW1573 GI50
Method: as §1, §2, §3

[7] = tested on: T47-D cells; assay: Antiproliferative SRB assay (NCI protocol), 48 h; format: cell-based, human; conditions: for GI50: Homo sapiens, T47D, read-out: 50% growth inhibition (GI50) ± SD, T47-D; for Selectivity Index, T47-D: splenocyte CC50 versus T47-D GI50
Method: as §1, §2, §3

[8] = tested on: WiDr cells; assay: Antiproliferative SRB assay (NCI protocol), 48 h; format: cell-based, human; conditions: for GI50: Homo sapiens, read-out: 50% growth inhibition (GI50) ± SD, WiDr; for Selectivity Index, WiDr: splenocyte CC50 versus WiDr GI50
Method: as §1, §2, §3

[9] = tested on: HBL100 cells; assay: Antiproliferative SRB assay (NCI protocol), 48 h; format: cell-based, human; conditions: splenocyte CC50 versus HBL100 GI50
[10] = Cytotoxicity on primary cell culture (propidium iodide, flow cytometry); format: cell-based; conditions: Balb/c mouse spleen cells, 48 h incubation, PI staining, read-out: CC50 ± SD, splenocytes (concentration that causes 50% cell death)
Method: The cytotoxicity of the sesquiterpene lactones and its derivatives was evaluated using mouse splenocytes. […] Cumanin derivatives (4–11) have shown CC50 values and selectivity indexes higher than natural compound 1. […] The incorporation of two triazole groups in cumanin (1) reduced cytotoxicity on normal cells and improved selectivity against tumor cell lines.
In a 96-well plate, spleen cells from Balb/c mouse (1.5 × 10^5) were incubated with different drug dilutions (200, 100, 50, 10, and 5 μg/mL) in RPMI medium containing 10% fetal calf serum. After 48 h of incubation at 37 °C (5% CO2), cells were harvested, washed once with PBS, and stained with 2.5 μg/mL propidium iodide (PI) for 5 min at room temperature. Subsequently, cell death was assessed by flow cytometry using a BD FACSaria II cytometer. Cells incubated only with a drug vehicle were used as a 100% viability control and death percentage was calculated according to the following formula: Death(%)=[1−(%PI^−cells)drug−treated/(%PI^−cells)100% viability control]×100.
Then the concentration capable of causing cell death in 50% of splenocytes (CC50) was determined using a non-linear regression approach.

[11] = tested on: human solid tumor cell lines (A549, HBL-100, HeLa, SW1573, T-47D, WiDr); assay: Antiproliferative SRB assay, whole panel of tumor cell lines; format: cell-based; conditions: tumor cell line panel, compared to cumanin (1)
Method: as §1, §2, §3

[12] = HeLa (cervix), SRB, 48 h drug exposure
[13] = HBL-100, HBL100 (breast), SRB, 48 h drug exposure
[14] = A549 (lung), SRB, 48 h drug exposure
[15] = SW1573 (non-small cell lung), SRB, 48 h drug exposure
[16] = T47-D (breast), SRB, 48 h drug exposure
[17] = WiDr (colon), SRB, 48 h drug exposure

## C=C1C(=O)O[C@@H]2C[C@H](C)[C@@H]3C[C@H](O[Si](C)(C)C)[C@H](O[Si](C)(C)C)[C@@]3(C)C[C@H]12 [Compound 5]
[1]
  Selectivity Index, HeLa: 22.9
[2]
  Selectivity Index, A549: 27.7
[3]; [12]
  GI50: 2.9 µM
[4]; [13]
  GI50: 3.6 µM
[5]; [14]
  GI50: 2.4 µM
[6]; [15]
  GI50: 1.8 µM
[6]
  Selectivity Index, SW1573: 36.9
[7]; [16]
  GI50: 1.9 µM
[7]
  Selectivity Index, T47-D: 34.9
[8]; [17]
  GI50: 2.2 µM
[8]
  Selectivity Index, WiDr: 30.2
[9]
  Selectivity Index, HBL100: 18.4

## C=C1C(=O)OC2CC(C)C3CC(OCc4cn(Cc5ccccc5)nn4)C(OCc4cn(Cc5ccccc5)nn4)C3(C)CC12 (stereo not drawn) [Compound 11]
[1]
  Selectivity Index, HeLa: 88.8
[10]; primary mouse splenocytes (spleen cells)
  CC50 at 48 h: 524 µM
[2]
  Selectivity Index, A549: 141.6
[3]; [12]
  GI50: 5.9 µM
[4]; [13]
  GI50: 6.4 µM
[5]; [14]
  GI50: 3.7 µM
[6]; [15]
  GI50: 4.7 µM
[6]
  Selectivity Index, SW1573: 111.5
[7]; [16]
  GI50: 9.7 µM
[7]
  Selectivity Index, T47-D: 54.0
[8]; [17]
  GI50: 2.3 µM
[8]
  Selectivity Index, WiDr: 227.9
[9]
  Selectivity Index, HBL100: 81.9

## C=C1C(=O)O[C@@H]2C[C@H](C)[C@@H]3C[C@H](O[Si](c4ccccc4)(c4ccccc4)C(C)(C)C)[C@H](O)[C@@]3(C)C[C@H]12 [Compound 7]
[1]
  Selectivity Index, HeLa: 71.3
[2]
  Selectivity Index, A549: 89.2
[3]; [12]
  GI50: 2 µM
[4]; [13]
  GI50: 3.7 µM
[5]; [14]
  GI50: 1.6 µM
[6]; [15]
  GI50: 1.5 µM
[6]
  Selectivity Index, SW1573: 95.1
[7]; [16]
  GI50: 3.4 µM
[7]
  Selectivity Index, T47-D: 42.0
[8]; [17]
  GI50: 3.1 µM
[8]
  Selectivity Index, WiDr: 46.0
[9]
  Selectivity Index, HBL100: 38.6

## C=C1C(=O)OC2CC(C)C3CC(O)C(O)C3(C)CC12 (stereo not drawn) [Compound 1, cumanin]
[1]
  Selectivity Index, HeLa: 1.5
[2]
  Selectivity Index, A549: 1.5
[3]; [12]
  GI50: 19 µM
[4]; [13]
  GI50: 21 µM
[5]; [14]
  GI50: 19 µM
[6]; [15]
  GI50: 14 µM
[6]
  Selectivity Index, SW1573: 2.1
[7]; [16]
  GI50: 30 µM
[7]
  Selectivity Index, T47-D: 1.0
[8]; [17]
  GI50: 36 µM
[8]
  Selectivity Index, WiDr: 0.8
[9]
  Selectivity Index, HBL100: 1.4

## C=C1C(=O)O[C@@H]2C[C@@H](C)[C@@H]3C=CC(=O)[C@@]3(C)[C@@H](O)[C@H]12 [Compound 2, helenalin]
[1]
  Selectivity Index, HeLa: 0.7
[10]
  CC50 at 48 h: 1.2 µM
[2]
  Selectivity Index, A549: 0.5
[3]; HeLa, 48 h
  GI50: 1.7 µM
[4]; HBL-100, 48 h
  GI50: 2.8 µM
[5]; A549, 48 h
  GI50: 2.3 µM
[6]; SW1573, 48 h
  GI50: 2.2 µM
[6]
  Selectivity Index, SW1573: 0.5
[7]; 48 h
  GI50: 2.9 µM
[7]
  Selectivity Index, T47-D: 0.4
[8]; WiDr, 48 h
  GI50: 2.7 µM
[8]
  Selectivity Index, WiDr: 0.4
[9]
  Selectivity Index, HBL100: 0.4

## C=C1C(=O)O[C@@H]2C[C@H](C)[C@@H]3C[C@H](OC(C)=O)[C@H](OC(C)=O)[C@@]3(C)C[C@H]12 [Compound 4]
[11]
  antiproliferative activity in words: moderate activity
[1]
  Selectivity Index, HeLa: 15.0
[2]
  Selectivity Index, A549: 10.0
[3]; [12]
  GI50: 16 µM
[4]; [13]
  GI50: 23 µM
[5]; [14]
  GI50: 24 µM
[6]; [15]
  GI50: 11 µM
[6]
  Selectivity Index, SW1573: 21.9
[7]; [16]
  GI50: 26 µM
[7]
  Selectivity Index, T47-D: 9.3
[8]; [17]
  GI50: 27 µM
[8]
  Selectivity Index, WiDr: 8.9
[9]
  Selectivity Index, HBL100: 10.5
